Measured values reported in patent publication US20150099753A1, “FORM 5 POLYMORPH OF 7-(TERT-BUTYL-D9)-3-(2,5-DIFLUOROPHENYL)-6-((1-METHYL-1H-1,2,4-TRIAZOL-5-YL)METHOXY)-[1,2,4]TRIAZOLO[4,3-B]PYRIDAZINE” (Concert Pharmaceuticals Inc., priority 2012, published 2015).

Columns and labels:
Type in all cases: physicochemical
[1] = Physical (crystal form) stability on exposure to ambient conditions or relative humidity
[2] = Crystal form stability when suspended and stirred in MeOH:water; conditions: stirred for 72 hours at ambient temperature
[3] = Dynamic Vapor Sorption (DVS) analysis; conditions: DVS at 25° C., 0% RH to 90% RH cycles
Protocol: Dynamic Vapor Sorption (DVS). DVS experiments were conducted on a Surface Measurement Systems DVS-HT at 25° C. The instrument was operated in step mode and the relative humidity was increased in 10% RH increments from 40% RH to 90% RH, then decreased from 90% RH to 0% RH, then increased from 0% RH to 90% RH, then decreased from 90% RH to 0% RH. An extra step at 75% RH was included in each cycle. The mass equilibrium criterion was set at 0.005% change in mass over time (dm/dt) prior to each humidity level. A minimum step time of 10 minutes and a maximum step time of 240 minutes were specified.

[4] = Relative thermodynamic stability of non-solvated forms (ripening studies); conditions: temperatures from between 22° C. and 70° C.
Protocol: Excess Form 1 was combined with EtOH (1.8 mL) and the suspension was stirred at 57° C. for 6 hrs. The suspension was allowed to settle, and the saturated EtOH solution was isolated, and added into a 2-mL vial containing a mixture of Forms 1, Form 3, and Form 4 ([…] of each). The suspension was stirred at 57° C. for 24 hrs. The solid was isolated on a Büchner funnel and air-dried for ˜6 hrs.
Once the above preparation of Form 5 was obtained, additional Form 5 was produced as follows. Form 1 (100 mg) was weighed into a […] 4-mL vial containing a stir-bar. EtOH (4-mL) was added and the suspension was stirred for 12 hrs and at 25° C. The suspension was filtered and the filtrate (1.8 mL) was added into a 2-mail vial containing equivalent amounts (10 mg) of Forms 3, 4, and 5. An aliquot of the suspension was immediately sampled; the solid was isolated by filtration, and analyzed by PXRD to verify the crystal-form. The suspension was stirred at 25° C. for an additional 24 hrs. A second aliquot was sampled; the solid was isolated by filtration, and analyzed to verify the crystal-form. […]
Once Form 5 crystals were isolated they were used to prepare additional Form 5 as follows. […] The solid was isolated on a Büchner funnel and air-dried for ˜6 hrs and determined to be Form 5.

- physical stability ([1]; exposed to 75% relative humidity for 5 days): physically stable
- physical stability ([1]; exposed to ambient conditions for at least 7 days): physically stable
- crystal form conversion in suspension ([2]; suspended in MeOH:water 95:5% volume): converts to Form 2
- crystal form conversion in suspension ([2]; suspended in MeOH:water 98:2% volume): converts to Form 2
- DVS weight gain (hygroscopicity; non-hygroscopic) [3]: < 0.4 % wt. gain
SMILES: [2H]C([2H])([2H])C(c1cc2nnc(-c3cc(F)ccc3F)n2nc1OCc1ncnn1C)(C([2H])([2H])[2H])C([2H])([2H])[2H] [Form 5, 7-(tert-Butyl-d9)-3-(2,5-difluorophenyl)-6-((1-methyl-1H-1,2,4-triazol-5-yl)methoxy)-[1,2,4]triazolo[4,3-b]pyridazine]
- physical stability ([1]; exposed to 97% RH for 5 days at room temperature): physically unstable and partially converts to hydrated crystal Form 2
- thermodynamic stability relative to other non-solvated forms (Forms 1, 3 and 4) [4]: more thermodynamically stable than any of the other non-solvated forms
